Laboratory results reported in US11247998B2, “Piperazine heteroaryl derivative, preparation method therefor and use of same in medicine” (priority 2017, dated 2022).

What was measured:
[1] = Effect on in vitro proliferation of HepG2 cells (CellTiter-Glo); format: cell-based; conditions: human; HepG2 cells, 72 hours, CellTiter-Glo
Experimental: Test Example 2. Effect of the Compound of the Present Invention on In Vitro Proliferation of HepG2 Cells
HepG2 cells in logarithmic growth phase were taken and digested with trypsin to prepare a cell suspension, which was incubated in a 96-well plate (transparent bottom white 96-well plate, PerkinElmer) at 6,000 cells/well, at 5% carbon dioxide, 37° C. for 16-20 hours. On Day 2, the compound was dissolved in pure DMSO at a concentration of 20 mM. The compound was diluted in 3-fold concentration gradient using an automatic pipetting station (Bravo), 8 concentration points for each compound, and the control well was DMSO. The compound formulated in DMSO at each concentration point was diluted 200-fold with EMEM (containing 10% FBS) medium. The cell culture plate inoculated on Day 1 was taken out. The medium in the wells was removed by a negative pressure suction device, and the formulated medium containing the compound at each concentration was added respectively to each well at 100 μl/well. The plate was incubated at 37° C. for 72 hours. On Day 5, the 96-well cell culture plate was taken out, and freshly formulated CellTiter Glo was added to each well at 100 μl/well. The 96-well plate was left to stand for 5-10 minutes, the bottom was then sealed with a white bottom sealing film (PerkinElmer). The plate was placed in the microplate reader to measure the luminescence signal. The CC50 value of the compound was calculated with Graphpad Prism software according to each concentration of the compound and the corresponding proliferation inhibition signal value.
The inhibition effect of the compound of the present invention on in vitro proliferation of HepG2 cells was determined by the above experiment.

[2] = tested on: HBV DNA replication in HepG2.2.15 cells; assay: In vitro anti-HBV activity test (quantitative assay of intracellular HBV DNA), HepG2.2.15 cells, quantitative PCR; format: cell-based, hepatitis B virus (HBV); conditions: Hepatitis B virus, HBV DNA by quantitative PCR; for EC50: compound treatment Day 2 to Day 8; for Emax: read-out: Emax (effect value of the compound to maximally inhibit HBV DNA replication)
Experimental: In vitro anti-HBV activity test of the compound of the present invention (quantitative assay of intracellular HBV DNA)
HepG2.2.15 cell is a stable expression cell line that has integrated HBV genome.
Virus particles containing HBV DNA can be synthesized by replication, transcription and encapsidation in the cells, and then secreted. In this study, the quantitative analysis of HBV DNA produced by HepG2.2.15 in vitro proliferation was carried out by quantitative PCR method, thereby determining the activity of the compound of the present invention on inhibiting the HBV DNA replication by inhibiting the assembly of HBV capsid protein.
HepG2.2.15 cells were cultured in DMEM/high glucose medium (10% FBS, […] G418) and passaged every three days. On the day of the experiment, a cell suspension was prepared with fresh cell culture medium, and incubated in a 96-well plate (Corning, #3599) at 40,000 cells/well, at 5% carbon dioxide, 37° C. On Day 2, the compound was dissolved in pure DMSO at a concentration of 20 mM, and then the first concentration of 2 mM was formulated with DMSO, and diluted in 4-fold concentration gradient to 8 concentrations. A control well was added with 90 μl of DMSO. The compound solution was diluted 200-fold with DMEM/high glucose medium. The cell culture plate inoculated on Day 1 was taken out. The medium in the wells was removed by a negative pressure suction device, and the formulated medium containing the compound at each concentration was added respectively to each well at 200 μl/well. The plate was incubated at 37° C. for 72 hours. On Day 5, the medium of the cultured cells was replaced with fresh medium containing the same compound in the same way as Day 2, and then the plate was incubated at 37° C. for 72 hours. On Day 8, the cell culture plate was taken out, centrifuged at 300 g for 3 minutes, and the culture supernatant was collected at 200 μl/well. HBV DNA was extracted from the cell culture supernatant with Qiagen automatic DNA extraction device, and the specific method referred to the instructions of the reagents and instruments. Finally, the extracted DNA was eluted with DNA elution buffer at 100 μl/well. The extracted DNA was subjected to quantitative PCR analysis of HBV DNA using Hepatitis B virus nucleic acid quantitative detection kit (Triplex International Biosciences Co., Ltd.), and the specific method referred to the instruction of the kit. The quantitative standard curve was obtained with the standard sample provided in the kit, and the experiments were performed in parallel. Quantitative conversion of each sample was carried out according to the standard curve. Finally, the EC50 value of the compound was calculated with Graphpad Prism software according to each concentration of the compound and the corresponding DNA value.
The in vitro activity of the compound of the present invention on inhibiting the HBV DNA replication by inhibiting the assembly of HBV capsid protein was determined by the above experiment.

[3] = Pharmacokinetics assay in rats after intragastrical administration (LC/MS/MS of plasma); format: in vivo; conditions: both sexes, rat, plasma, po, SD rats, 2 mg/kg; for Vd/F: read-out: Apparent distribution volume Vz/F; for AUC: read-out: Area under curve AUC; for bioavailability: read-out: Bioavailability (%) F %; for CL/F: read-out: Clearance CLz/F; for half-life: read-out: Half-life T1/2 (converted); for Cmax: read-out: Plasma concentration Cmax; for MRT: read-out: Residence time MRT
Experimental: Pharmacokinetics assay of the compound of the present invention
Rats were used as test animals. The drug concentration in plasma at different time points was determined by LC/MS/MS method after intragastrical administration of the compound of Example 1, the compound of Example 2, the compound of Example 4, the compound of Example 6, the compound of Example 7, the compound of Example 11, the compound of Example 39, the compound of Example 42, the compound of Example 44, the compound of Example 45 and the compound of Example 47 to rats. The pharmacokinetic behavior and property of the compound of the present invention were studied and evaluated in rats.
44 Healthy adult SD rats (half male and half female, 4 rats/group) were purchased from Shanghai Jiesijie Laboratory Animal Co., LTD, with Certificate No.: SCXK (Shanghai) 2013-0006.
A certain amount of the test compound was weighed, and added with 5% by volume of DMSO, 5% by volume of tween 80 and 90% by volume of normal saline to prepare a 0.2 mg/mL colorless, clear and transparent solution.
After an overnight fast, SD rats were administrated intragastrically with the test compound at an administration dose of 2.0 mg/kg and an administration volume of 10.0 mL/kg.
The rats were intragastrically administrated the compound of Example 1, the compound of Example 2, the compound of Example 4, the compound of Example 6, the compound of Example 7, the compound of Example 11, the compound of Example 39, the compound of Example 42, the compound of Example 44, the compound of Example 45 and the compound of Example 47. 0.1 ml of blood was taken from the orbit before administration and at 0.5, 1.0, 2.0, 4.0, 6.0, 8.0, 11.0 and 24.0 hours after administration. The samples were stored in heparinized tubes, and centrifuged for 10 minutes at 3500 rpm to separate the blood plasma. The plasma samples were stored at −20° C. The rats were fed two hours after administration.
The content of the test compound in the plasma of rats after intragastrical administration of the test compound at different concentrations was determined: 25 μL of rat plasma at each time after administration was taken, added with 40 μL of the internal standard solution of camptothecin (100 ng/mL) and 200 μL of acetonitrile, vortex-mixed for 5 minutes, and centrifuged for 10 minutes (4000 rpm). 0.2 μL of the supernatant was taken from the plasma samples for LC/MS/MS analysis.

Compound | CC50 at 72 h [1] [nM] | EC50 [2] [nM] | Emax [2] [%] | Vd/F [3] [L/kg] | AUC [3] [ng·h/mL] | bioavailability [3] [%] | CL/F [3] [mL/min/kg] | half-life [3] [h] | Cmax [3] [ng/mL] | MRT [3] [h]
C[C@@H](NC(=O)c1cnn2c1CN(C(=O)Nc1ccc(F)c(F)c1)CC2)C(F)(F)F [Example 2, (R)—N^5-(3,4-Difluorophenyl)-N^3-(1,1,1-trifluoropropan-2-yl)-6,7-dihydropyrazolo[1,5-α]pyrazine-3,5(4H)-dicarboxamide] | > 100000 | 30 | 100 | 2.58 ± 0.638 | 9250 ± 3310 | 107 | 4 ± 1.48 | 8.01 ± 2.26 | 661 ± 200 | 11.5 ± 2.8
C[C@@H](NC(=O)c1cnn2c1CN(C(=O)Nc1cc(F)c(F)c(F)c1)CC2)C(F)(F)F [Example 4, (R)—N^5-(3,4,5-Trifluorophenyl)-N^3-(1,1,1-trifluoropropan-2-yl)-6,7-dihydropyrazolo[1,5-α]pyrazine-3,5(4H)-dicarboxamide] | > 100000 | 27 | 100 | 3.69 ± 0.532 | 7130 ± 2640 | 120 | 5.08 ± 1.48 | 8.8 ± 1.95 | 425 ± 100 | 13.1 ± 2.5
C[C@H]1Cn2cnc(C(=O)N[C@H](C)C(F)(F)F)c2CN1C(=O)Nc1ccc(F)c(F)c1 [Example 6, (S)—N^7-(3,4-Difluorophenyl)-6-methyl-N^1-((R)-1,1,1-trifluoropropan-2-yl)-5,6-dihydroimidazo[1,5-α]pyrazine-1,7(8H)-dicarboxamide] | > 100000 | 4 | 100 | 2.16 ± 0.721 | 12900 ± 6600 | 120 | 3.22 ± 1.66 | 10.8 ± 8.1 | 629 ± 167 | 16.7 ± 10.1
C[C@H]1Cn2ncc(C(=O)N[C@H](C)C(F)(F)F)c2CN1C(=O)Nc1ccc(F)c(F)c1 [Example 7, (S)—N^5-(3,4-Difluorophenyl)-6-methyl-N^3-((R)-1,1,1-trifluoropropan-2-yl)-6,7-dihydropyrazolo[1,5-α]pyrazine-3,5(4H)-dicarboxamide] | > 100000 | 38 | 100 | 1.65 ± 0.174 | 16500 ± 9260 | 98 | 2.63 ± 1.46 | 9.72 ± 5.94 | 1080 ± 151 | 14.1 ± 8
C[C@H]1Cn2cnc(C(=O)N[C@H](C)C(F)(F)F)c2CN1C(=O)Nc1ccc(F)c(C#N)c1 [Example 11, (S)—N^7-(3-Cyano-4-fluorophenyl)-6-methyl-N^1-((R)-1,1,1-trifluoropropan-2-yl)-5,6-dihydroimidazo[1,5-α]pyrazine-1,7-(8H)-dicarboxamide] | > 100000 | 18 | 100 | 2.89 ± 0.389 | 10900 ± 4520 | 111 | 3.53 ± 1.5 | 11.2 ± 5.63 | 597 ± 64 | 16.3 ± 7.6
C[C@@H]1CN(C(=O)Nc2ccc(F)c(F)c2)Cc2c(C(=O)N[C@H](C)C(F)(F)F)nnn21 [Example 42, (R)—N^5-(3,4-Difluorophenyl)-7-methyl-N^3-((R)-1,1,1-trifluoropropan-2-yl)-6,7-dihydro-[1,2,3]triazolo[1,5-α]pyrazine-3,5(4)-dicarboxamide] | > 100000 | 75 | 100 | 5.96 ± 1.22 | 7380 ± 3180 | 87 | 5.3 ± 2.47 | 15.9 ± 8.9 | 433 ± 102 | 22.1 ± 12.4
C[C@H]1Cn2cnc(C(=O)NC3(C)CCC3)c2CN1C(=O)Nc1ccc(F)c(C#N)c1 [Example 46, (S)—N^7-(3-Cyano-4-fluorophenyl)-6-methyl-N^1-(1-methylcyclobutyl)-5,6-dihydroimidazo[1,5-α]pyrazine-1,7(8H)-dicarboxamide] | > 100000 | 65 | 97 |  |  |  |  |  |  | 
C[C@H]1Cn2cnc(C(=O)NC3(C)CC3)c2CN1C(=O)Nc1ccc(F)c(C#N)c1 [Example 48, (S)—N^7-(3-Cyano-4-fluorophenyl)-6-methyl-N^1-(1-methylcyclopropyl)-5,6-dihydroimidazo[1,5-α]pyrazine-1,7(8H)-dicarboxamide] | > 100000 | 93 | 98 |  |  |  |  |  |  | 
Cc1cc(NC(=O)N2Cc3c(C(=O)N[C@H](C)C(F)(F)F)ncn3C[C@@H]2C)ccc1F [Example 58, (S)—N^7-(4-Fluoro-3-methylphenyl)-6-methyl-N^1-((R)-1,1,1-trifluoropropan-2-yl)-5,6-dihydroimidazo[1,5-α]pyrazine-1,7(8H)-dicarboxamide] | > 100000 | 15 | 100 |  |  |  |  |  |  | 
